Assay results as given in ChEMBL document CHEMBL4020836, “Discovery of 7-Oxo-2,4,5,7-tetrahydro-6 H-pyrazolo[3,4- c]pyridine Derivatives as Potent, Orally Available, and Brain-Penetrating Receptor Interacting Protein 1 (RIP1) Kinase Inhibitors: Analysis of Structure-Kinetic Relationships” (J Med Chem, 2018).

Key:
[1] = Metabolic stability in human liver microsomes; assay type: ADME, microsome; details: read-out: Stability
[2] = Metabolic stability in mouse liver microsomes; assay type: ADME, microsome; details: read-out: Stability

`CNC(=O)c1ccc2c(c1)OC[C@H](N1CCc3c(nn(Cc4ccccc4)c3Cl)C1=O)C(=O)N2C` showed a microsomal CLint [1] of 13 µL/min/mg and a microsomal CLint [2] of less than 1 µL/min/mg.

With `CN1C(=O)[C@@H](N2CCc3c(nn(Cc4ccccc4)c3Cl)C2=O)COc2ccccc21` the microsomal CLint [1] was 101 µL/min/mg and the microsomal CLint [2] was 100 µL/min/mg.
